{"source": "patent US4521335A", "about": "“Aglycone and pseudo-aglycones of the AAD 216 antibiotics” (SmithKline Beckman Corporation, priority 1984, dated 1985)", "key": {"[1]": {"test_system": "inoculum (rumen cannula filtrate)", "assay": "rumen in vitro model, growth promotant activity", "conditions": "for GLU (% Control): glucose; for Propionate % (% Control): propionate as percentage of total VFA; for VFA (% Control): total volatile fatty acids; for LYS (% Control): lysine"}, "[2]": {"test_system": "inoculum (ileal or cecal cannula filtrate)", "assay": "swine in vitro model, growth promotant activity", "conditions": "5 hours, 37° C.; for GLU (% Control): glucose; for LAC (% Control): lactic acid; for LYS (% Control): lysine; for VFA (% Control): total volatile fatty acids"}}}
{"molecule": "CC[C@@]1([C@H]2O[C@H]([C@H]3O[C@@](O)(CO)[C@H](C)C[C@@H]3C)C[C@H]2C)CC[C@H]([C@@]2(C)CC[C@]3(C[C@H](O)[C@@H](C)[C@@H]([C@H](C)[C@H](OC)[C@@H](C)C(=O)O)O3)O2)O1", "note": "[Monensin Sodium]", "values": [{"measurement": "GLU (% Control)", "setting": "[1]; experiment III, 0.5 ppm", "value": 11, "unit": "% Control"}, {"measurement": "Propionate % (% Control)", "setting": "[1]; experiment III, 0.5 ppm", "value": 119, "unit": "% Control"}, {"measurement": "VFA (% Control)", "setting": "[1]; experiment III, 0.5 ppm", "value": 94, "unit": "% Control"}, {"measurement": "GLU (% Control)", "setting": "[1]; experiment III, 5.0 ppm", "value": 126, "unit": "% Control"}, {"measurement": "LYS (% Control)", "setting": "[1]; experiment III, 5.0 ppm", "value": 141, "unit": "% Control"}, {"measurement": "Propionate % (% Control)", "setting": "[1]; experiment III, 5.0 ppm", "value": 149, "unit": "% Control"}, {"measurement": "VFA (% Control)", "setting": "[1]; experiment III, 5.0 ppm", "value": 104, "unit": "% Control"}, {"measurement": "GLU (% Control)", "setting": "[1]; experiment III, 50.0 ppm", "value": 0, "unit": "% Control"}, {"measurement": "LYS (% Control)", "setting": "[1]; experiment III, 50.0 ppm", "value": 147, "unit": "% Control"}, {"measurement": "Propionate % (% Control)", "setting": "[1]; experiment III, 50.0 ppm", "value": 156, "unit": "% Control"}, {"measurement": "LYS (% Control)", "setting": "[1]; experiment IV, 5.0 ppm", "value": 595, "unit": "% Control"}, {"measurement": "Propionate % (% Control)", "setting": "[1]; experiment IV, 5.0 ppm", "value": 161, "unit": "% Control"}, {"measurement": "VFA (% Control)", "setting": "[1]; experiment IV, 5.0 ppm", "value": 106, "unit": "% Control"}]}
{"molecule": "Virginiamycin", "values": [{"measurement": "GLU (% Control)", "setting": "[2]; experiment I, 1.67 ppm", "value": 182, "unit": "% Control"}, {"measurement": "LAC (% Control)", "setting": "[2]; experiment I, 1.67 ppm", "value": 70, "unit": "% Control"}, {"measurement": "LYS (% Control)", "setting": "[2]; experiment I, 1.67 ppm", "value": 82, "unit": "% Control"}, {"measurement": "GLU (% Control)", "setting": "[2]; experiment I, 16.67 ppm", "value": 191, "unit": "% Control"}, {"measurement": "LAC (% Control)", "setting": "[2]; experiment I, 16.67 ppm", "value": 76, "unit": "% Control"}, {"measurement": "LYS (% Control)", "setting": "[2]; experiment I, 16.67 ppm", "value": 127, "unit": "% Control"}, {"measurement": "GLU (% Control)", "setting": "[2]; experiment I, 166.67 ppm", "value": 197, "unit": "% Control"}, {"measurement": "LAC (% Control)", "setting": "[2]; experiment I, 166.67 ppm", "value": 81, "unit": "% Control"}, {"measurement": "LYS (% Control)", "setting": "[2]; experiment I, 166.67 ppm", "value": 163, "unit": "% Control"}, {"measurement": "VFA (% Control)", "setting": "[2]; experiment I, 166.67 ppm", "value": 93, "unit": "% Control"}, {"measurement": "GLU (% Control)", "setting": "[2]; experiment II, 1.67 ppm", "value": 837, "unit": "% Control"}, {"measurement": "LAC (% Control)", "setting": "[2]; experiment II, 1.67 ppm", "value": 21, "unit": "% Control"}, {"measurement": "LYS (% Control)", "setting": "[2]; experiment II, 1.67 ppm", "value": 96, "unit": "% Control"}, {"measurement": "VFA (% Control)", "setting": "[2]; experiment II, 1.67 ppm", "value": 240, "unit": "% Control"}]}
{"molecule": "avoparcin", "values": [{"measurement": "GLU (% Control)", "setting": "[2]; experiment II, 1.67 ppm", "value": 115, "unit": "% Control"}, {"measurement": "LAC (% Control)", "setting": "[2]; experiment II, 1.67 ppm", "value": 102, "unit": "% Control"}, {"measurement": "LYS (% Control)", "setting": "[2]; experiment II, 1.67 ppm", "value": 101, "unit": "% Control"}]}
